Like-named read-outs stand apart in the source and are kept apart here. Numbered stars: 1 amine (or outer) side, 2 acyl side, 3 side chain; on linkers, the order of the positions; unused ones are H or OH. Square brackets hold non-standard residues; d marks the D form. Side chains are listed from the residue outwards. Peptide text beside a SMILES is read from it. * marks the point of attachment. C18 diacid = O=C(O)CCCCCCCCCCCCCCCCC(=O)*; γGlu = O=C(O)[C@H](CCC(=O)[*:2])N[*:1]; αMeF = C[C@](N)(Cc1ccccc1)C(=O)O; αMeK = C[C@](N)(CCCCN)C(=O)O; αMeS = C[C@](N)(CO)C(=O)O; AEEA = NCCOCCOCC(=O)O; Aib = CC(C)(N)C(=O)O
Assays:
Type in all cases: cell-based
GLP-1R (INS1e cells) = molecular target: T1, GLP-1R (INS1e cells) (Rattus norvegicus, UniProt P32301); experiment: INS1e assay, cAMP activity at GLP-1R; conditions: Table 8, substituted and mono-lipidated peptides
T1 construct: endogenous in cells; host or cells: INS1e cells
T1 sequence (P32301 22-463): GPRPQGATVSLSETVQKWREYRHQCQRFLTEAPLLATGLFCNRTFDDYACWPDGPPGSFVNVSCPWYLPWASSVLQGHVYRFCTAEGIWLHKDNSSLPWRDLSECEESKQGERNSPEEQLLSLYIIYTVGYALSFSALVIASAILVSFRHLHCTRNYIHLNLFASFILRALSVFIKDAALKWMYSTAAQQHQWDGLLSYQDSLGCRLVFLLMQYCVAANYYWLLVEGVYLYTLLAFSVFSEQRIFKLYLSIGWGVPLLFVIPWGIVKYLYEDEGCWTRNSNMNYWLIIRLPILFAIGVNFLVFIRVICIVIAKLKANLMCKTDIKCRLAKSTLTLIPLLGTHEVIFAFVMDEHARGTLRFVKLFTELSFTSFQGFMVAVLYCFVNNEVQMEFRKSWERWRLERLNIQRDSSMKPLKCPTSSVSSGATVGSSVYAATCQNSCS

[1] = molecular target: T2, human GLP-1 receptor (GLP-1R) (Homo sapiens, UniProt P43220); experiment: cAMP assay, human GLP-1R cells; conditions: cAMP activity
T2 construct: expressed in transfected cells; host or cells: HEK293 cells or CHO cells
Outline: (§1)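 Peptide-stimulated cAMP measured by two-step HTRF after a 30 min room-temperature incubation with receptor-expressing cells (hGLP-1R, hGIPR at 1×10^5 cells/ml; hGCGR at 2×10^5 cells/ml). Duplicate dilutions; EC50 from 4-parameter logistic fit of % Delta F.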

[2] = molecular target: T3, human glucose-dependent insulinotropic peptide receptor (GIPR) (Homo sapiens, UniProt P48546); experiment: cAMP assay, human GIPR cells; conditions: cAMP activity, read-out: Primary assay EC50 GIP-R
T3 construct: expressed in transfected cells; host or cells: HEK293 cells or CHO cells
T3 sequence (P48546 22-466): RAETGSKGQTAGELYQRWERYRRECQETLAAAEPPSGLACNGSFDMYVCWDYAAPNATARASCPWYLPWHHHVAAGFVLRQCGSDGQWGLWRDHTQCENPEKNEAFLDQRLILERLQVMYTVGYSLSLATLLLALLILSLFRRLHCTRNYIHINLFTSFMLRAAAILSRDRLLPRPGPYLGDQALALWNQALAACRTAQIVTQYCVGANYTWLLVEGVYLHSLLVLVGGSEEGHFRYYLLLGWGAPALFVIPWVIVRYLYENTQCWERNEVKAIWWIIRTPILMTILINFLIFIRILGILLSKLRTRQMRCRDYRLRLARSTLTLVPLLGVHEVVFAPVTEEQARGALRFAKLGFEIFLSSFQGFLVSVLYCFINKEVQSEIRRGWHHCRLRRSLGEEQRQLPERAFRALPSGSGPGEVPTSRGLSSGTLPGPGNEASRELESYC
Outline: as §1

[3] = molecular target: T4, human glucagon receptor (GCGR) (Homo sapiens, UniProt P47871); experiment: cAMP assay, human GCGR cells; conditions: cAMP activity; second determination (n2); read-out: Primary assay EC50 Gluc-R
T4 construct: expressed in transfected cells; host or cells: HEK293 cells or CHO cells
Outline: as §1

[4] = mean of n1 and n2, read-out: INS1e assay EC50 Mean pM GLP-1R
[5] = mean of n1 and n2, read-out: Mean pM GLP-1R
[6] = replicate n1, read-out: INS1e assay EC50 GLP-1R n1
[7] = replicate n2, read-out: INS1e assay EC50 GLP-1R n2
[8] = first determination (n1), read-out: Primary assay EC50 GLP-1R n1
[9] = second determination (n2), read-out: Primary assay EC50 GLP-1R n2

T2 sequence (P43220 24-463): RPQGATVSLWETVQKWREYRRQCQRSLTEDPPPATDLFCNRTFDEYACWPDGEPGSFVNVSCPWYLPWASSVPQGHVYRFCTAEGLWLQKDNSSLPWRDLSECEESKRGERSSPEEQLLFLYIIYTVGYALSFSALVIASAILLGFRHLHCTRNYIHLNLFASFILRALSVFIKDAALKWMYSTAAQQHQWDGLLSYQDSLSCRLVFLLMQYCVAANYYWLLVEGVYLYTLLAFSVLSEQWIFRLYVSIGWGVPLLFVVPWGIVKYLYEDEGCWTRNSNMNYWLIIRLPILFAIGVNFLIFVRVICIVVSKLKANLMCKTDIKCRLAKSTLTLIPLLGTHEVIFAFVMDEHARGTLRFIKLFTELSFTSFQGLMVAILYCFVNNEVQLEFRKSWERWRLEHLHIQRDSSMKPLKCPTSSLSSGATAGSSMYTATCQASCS
T4 sequence (P47871 26-477): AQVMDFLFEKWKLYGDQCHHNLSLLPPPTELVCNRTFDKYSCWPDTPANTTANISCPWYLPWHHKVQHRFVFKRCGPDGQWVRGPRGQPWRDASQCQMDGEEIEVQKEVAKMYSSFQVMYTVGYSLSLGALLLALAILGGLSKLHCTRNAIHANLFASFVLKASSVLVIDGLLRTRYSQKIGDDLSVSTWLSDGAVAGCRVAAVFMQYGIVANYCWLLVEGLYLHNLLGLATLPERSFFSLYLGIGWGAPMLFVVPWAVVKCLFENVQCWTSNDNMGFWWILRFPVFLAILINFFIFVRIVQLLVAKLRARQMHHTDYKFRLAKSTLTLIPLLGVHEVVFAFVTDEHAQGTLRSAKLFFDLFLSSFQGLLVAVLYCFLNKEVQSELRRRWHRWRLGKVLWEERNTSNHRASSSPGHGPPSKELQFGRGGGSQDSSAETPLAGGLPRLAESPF

SMILES | EC50 (GLP-1R (INS1e cells); [4]) [pM] | EC50 [1, 5] [pM] | EC50 ([2]; first determination (n1)) [nM] | EC50 ([2]; second determination (n2)) [nM] | EC50 (GLP-1R (INS1e cells); [6]) [pM] | EC50 (GLP-1R (INS1e cells); [7]) [pM] | EC50 [3] [nM] | EC50 [1, 8] [pM] | EC50 [1, 9] [pM]
CC[C@H](C)[C@H](NC(=O)[C@](C)(Cc1ccccc1)NC(=O)[C@H](CCC(=O)O)NC(=O)[C@H](CCC(=O)O)NC(=O)[C@H](C)NC(=O)[C@H](C)NC(=O)[C@H](CCC(=O)O)NC(=O)CNC(=O)[C@H](CCC(=O)O)NC(=O)[C@H](CC(C)C)NC(=O)[C@](C)(Cc1ccccc1)NC(=O)[C@H](CO)NC(=O)[C@](C)(CO)NC(=O)[C@@H](NC(=O)[C@H](CC(=O)O)NC(=O)[C@H](CO)NC(=O)[C@@H](NC(=O)[C@](C)(Cc1ccccc1)NC(=O)[C@H](CO)NC(=O)CNC(=O)[C@H](CCC(=O)O)NC(=O)C(C)(C)NC(=O)[C@@H](N)Cc1c[nH]cn1)[C@@H](C)O)C(C)C)C(=O)N[C@@H](C)C(=O)N[C@@](C)(Cc1ccccc1)C(=O)N[C@H](C(=O)N[C@H](C(=O)N[C@@H](CCC(=O)O)C(=O)NCC(=O)NCC(N)=O)C(C)C)C(C)C [compound 44] (H-H[Aib]EGS[αMeF]TSDV[αMeS]S[αMeF]LEGEAAEE[αMeF]IA[αMeF]VVEGG-NH2) | 455 | 6.7 |  |  |  |  |  |  | 
CC[C@H](C)[C@H](NC(=O)[C@](C)(Cc1ccccc1)NC(=O)[C@H](CCC(=O)O)NC(=O)[C@H](CCCCNC(=O)COCCOCCNC(=O)COCCOCCNC(=O)CC[C@H](NC(=O)CCCCCCCCCCCCCCCCC(=O)O)C(=O)O)NC(=O)[C@H](C)NC(=O)[C@H](C)NC(=O)[C@H](CCC(=O)O)NC(=O)CNC(=O)[C@H](CCC(=O)O)NC(=O)[C@H](CC(C)C)NC(=O)[C@](C)(Cc1ccccc1)NC(=O)[C@H](CO)NC(=O)[C@H](CO)NC(=O)[C@@H](NC(=O)[C@H](CC(=O)O)NC(=O)[C@H](CO)NC(=O)[C@@H](NC(=O)[C@](C)(Cc1ccccc1)NC(=O)[C@H](CO)NC(=O)CNC(=O)[C@H](CCC(=O)O)NC(=O)C(C)(C)NC(=O)[C@@H](N)Cc1c[nH]cn1)[C@@H](C)O)C(C)C)C(=O)N[C@@H](C)C(=O)N[C@@](C)(Cc1ccccc1)C(=O)N[C@H](C(=O)N[C@H](C(=O)N[C@@](C)(CCCCN)C(=O)NCC(=O)NCC(N)=O)C(C)C)C(C)C [compound 46] | 68000 | 1560 | ≥ 26 | ≥ 26 | 52600 | 83400 | ≥ 26 | 920 | 2200
CC[C@H](C)[C@H](NC(=O)[C@](C)(Cc1ccccc1)NC(=O)[C@H](CCC(=O)O)NC(=O)[C@H](CCCCNC(=O)COCCOCCNC(=O)COCCOCCNC(=O)CC[C@H](NC(=O)CCCCCCCCCCCCCCCCC(=O)O)C(=O)O)NC(=O)[C@H](C)NC(=O)[C@H](C)NC(=O)[C@H](CCC(=O)O)NC(=O)CNC(=O)[C@H](CCC(=O)O)NC(=O)[C@H](CC(C)C)NC(=O)[C@H](Cc1ccc(O)cc1)NC(=O)[C@H](CO)NC(=O)[C@](C)(CO)NC(=O)[C@@H](NC(=O)[C@H](CC(=O)O)NC(=O)[C@H](CO)NC(=O)[C@@H](NC(=O)[C@](C)(Cc1ccccc1)NC(=O)[C@H](CO)NC(=O)CNC(=O)[C@H](CCC(=O)O)NC(=O)C(C)(C)NC(=O)[C@@H](N)Cc1c[nH]cn1)[C@@H](C)O)C(C)C)C(=O)N[C@@H](C)C(=O)N[C@@](C)(Cc1ccccc1)C(=O)N[C@H](C(=O)N[C@H](C(=O)N[C@@](C)(CCCCN)C(=O)NCC(=O)NCC(N)=O)C(C)C)C(C)C [compound 47] (H-H[Aib]EGS[αMeF]TSDV[αMeS]SYLEGEAAK([AEEA-AEEA-γGlu-C18 diacid])E[αMeF]IA[αMeF]VV[αMeK]GG-NH2; N-terminus assumed) | 9670 | 43.3 | ≥ 25 | ≥ 25 | 7130 | 12200 | ≥ 25 | 37 | 50

Source: patent publication US20210221866A1, “PROTEASE-RESISTANT LIPIDATED GLP-1 ANALOGS” (MEDIMMUNE LIMITED, priority 2015, published 2021)
